Data on one molecule can be found in patent US20080102039A1, “Betamethasone spray” (priority 2006, published 2008).

Structures are written as SMILES.

For data set [1] the following is noted: cited from earlier work.
Data set [2] can be described thus: Preparation of Formulation 1: dissolution of BMV in dimethyl isosorbide and visual check for precipitation. Format: physicochemical. The note with it: Formulation 1 preparation. As to the method: • 1) Into vessel 1 was added the dimethyl isosorbide to which was slowly sprinkled the BMV. This was left mixing until visually dissolved. • 2) To vessel 1 was added the propylene glycol with stirring until homogenous. • 3) In vessel 2 was added the required amount of water and polysorbate 80. This was stirred until dissolved and homogenous. • 4) The 3Na.citrate.2H2O, anhyd. citric acid, imidazolidinyl urea and SDS were then added to vessel 2 and stirred until completely dissolved. • 5) The contents of vessel 2 were then poured into vessel 1 and stirred until homogenous.
A 1.1 kg batch of the 0.12% w/w Betamethasone valerate foam formulation above was then made up for a 3-month accelerated stability study using the same method: (Table 2)

Data set [3] in a line: Microscope examination of drops for crystals (Leica DM LB, drop taken every 5 mins). Format: physicochemical. As to the method:
The DMI phase was made up for a total solution volume of 500 g so 0.600 g (actual weight) of betamethasone valerate was dissolved in 25.009 g of Arlasolve DMI. The rate of addition was 0.600 g added over 30 secs that is at a rate of 0.02 g/sec. The solution was then mixed at speed setting 1 on the Bibby magnetic stirrer. 1 drop of the solution was then taken every 5 mins. and examined under the Leica DM LB microscope with a 5× lens and L plan 10× eyepiece. A 100×1 mm^2 graticule was placed over the sample. The temperatures before and after addition of DMI were also recorded.
Whilst stirring the BMV/DMI solution at speed 1 on the Bibby magnetic stirrer, the propylene glycol (50.008 g) was poured in over approx. 12 secs, at a rate of 4.17 g/sec. 1 drop of the solution was then taken every 5 mins. and examined under a Leica DM LB microscope with a 5× lens and L plan 10× eyepiece. […] The temperatures before and after addition of propylene glycol were also recorded.
15.120 g of the active phase was added to 84.880 g of the aqueous phase over 10 secs (Total vol.=100.000 g), at a rate of 1.51 g/sec. […] The temperatures before and after addition of the active phase were also recorded. […]
84.882 g of the aqueous phase were added to 15.129 g of the active phase over 10 secs (Total vol.=100.011 g). […] The temperatures before and after addition of the aqueous phase were also recorded. […]

As to `CCCCC(=O)O[C@]1(C(=O)CO)[C@@H](C)C[C@H]2[C@@H]3CCC4=CC(=O)C=C[C@]4(C)[C@@]3(F)[C@@H](O)C[C@@]21C` [Betamethasone valerate], the solubility in water entry in data set [1] is reported as “practically insoluble”. The “dissolution of BMV into dimethyl isosorbide” value in data set [2] is recorded as “successfully dissolved”. Besides, the “time to fully dissolve into the dimethyl isosorbide” value in data set [3] (0.600 g in 25.009 g Arlasolve DMI, stirrer speed 1) is given as “at least 30 minutes”. The “effect of addition of propylene glycol on precipitating the betamethasone valerate” value in data set [3] (propylene glycol 50.008 g poured into BMV/DMI solution) is “no effect”.
